From article PMC10107299, “Neutralizing the Impact of the Virulence Factor LecA from Pseudomonas aeruginosa on Human Cells with New Glycomimetic Inhibitors” (Angewandte Chemie (International Ed. in English), 2023)
Several values for one entry are separate records, joined by “and”; a condition that tells them apart may be missing. Equal values may be shown once.

How the values were obtained:
[1] = target: T1, LecA (Pseudomonas aeruginosa, UniProt Q05097); experiment: Inhibition of LecA-AF488 binding to H1299 cells, flow cytometry; type: cell-based; conditions: for Decrease of LecA binding to H1299 cells / IC50: 0.16 μM LecA-AF488, flow cytometry; for Inhibition of lectin binding to the cells: 7.5 μM and above, flow cytometry; for IC50: IC50 for inhibition of LecA binding to H1299 cells, N=3
T1 construct: made in house
Procedure: Next, we investigated the two most promising compounds H2 and L2 for their efficacy to inhibit LecA binding to H1299 human lung epithelial cells using flow cytometry and confocal microscopy. To this end, LecA was fluorescently labelled with Alexa Fluor 488 NHS ester (LecA‐AF488), incubated with varying concentrations of the inhibitors (100 nM to 10 μM) and subsequently added to the cells.
For flow cytometry analysis, inhibitors were preincubated with 0.16 μM LecA prior addition to the H1299 cells. After incubation for 30 min, fluorescence intensity was recorded at the flow cytometer. […] In contrast, 10 μM of the corresponding monovalent ligands G2 and K2 were required for 50 % inhibition (Figure S10).
H1299 cells were detached with 2 mL of 1.5 mM EDTA in PBS, 1.2 × 10^5 cells were counted and transferred to a U-bottom 96 well plate (Sarstedt AG & Co. KG, Numbrecht, Germany).
For flow cytometry assay, the optimal LecA concentration was established following a lectin titration (0.04–0.5 µM LecA-AF488) with H1299 cells. The histogram of fluorescence intensity […]
µM LecA-AF488 was used in flow cytometry experiments. LecA-AF488 was preincubated with PNPG, G2, K2, H2 or L2 in RPMI medium, for 20 min at room temperature and protected from light. The ligand-LecA solution was then added to the cells and further incubated for 30 min at 4 °C. H1299 cells were resuspended with medium in absence of lectin or inhibitor represented the negative assay control, while cells incubated only with LecA-AF488 (no inhibitor) served as the positive control. Subsequently, cells were centrifuged at 1600 × g for 3 min at 4 °C to remove unbound lectin. The samples were then washed twice with ice-cold FACS buffer (PBS (-/-) supplemented with 3% FCS (v/v)). After the last washing step, the cells were re-suspended in FACS buffer and transferred to FACS tubes (Kisker Biotech GmbH Co. KG, Steinfurt, Germany) on ice and in absence of light. The fluorescence intensity of treated cells was measured with FACS Gallios from Beckman Coulter. […]

[2] = Plasma protein binding (rapid equilibrium device), murine plasma; type: in vitro ADME, mouse; conditions: CD-1, mouse, plasma, read-out: PPB Mouse (converted)
Procedure: mixer (Eppendorf). Acetonitrile and caffeine were dispensed using a Mantis Formulatrix. Then samples were centrifuged for 20 min at 2.270 x g at 4 °C and the supernatants were transferred to 96-well Greiner V-bottom plates. Peak areas of each compound and of the internal standard were analyzed using the MultiQuant 3.0 software (AB Sciex). Peak areas of the respective compound were normalized to the internal standard peak area and to the respective peak areas at time point 0 min: (C/D)/(A/B) with A: peak area of the compound at time point 0 min, B: peak area of the internal standard at time point 0 min, C: peak area of the compound at the respective time point, D: peak area of the internal standard at the respective time point. […]
Assessment of plasma protein binding
Plasma protein binding was assessed using the rapid equilibrium device (RED) system from ThermoFisher. Compounds were dissolved in DMSO. […]
high plasma protein binding. Compounds were diluted in murine plasma (from CD-1 mice, pooled) or in human plasma (human donors, both genders, pooled) to a final concentration of 1 µM. Dialysis buffer and plasma samples were added to the respective chambers according the manufacturer’s protocol. The RED plate was sealed with a tape and incubated at 37 °C for 2 hours at 800 rpm on an Eppendorf MixMate vortex-mixer. Then samples were withdrawn from the respective chambers. To 25 µL of each dialysis sample, 25 µL of plasma and to 25 µL of plasma sample, 25 µL of dialysis buffer was added. Then 150 µL ice-cold extraction solvent (ACN/H2O (90:10) containing 12.5 ng/mL caffeine as internal standard) was added. Samples were incubated for 30 min on ice. Then samples were centrifuged at 4 °C at 2270 x g for 10 min.
Supernatants were transferred to Greiner V-bottom 96-well plates and sealed with a tape. The […]
percentage of bound compound was calculated as follows:
(1) % free = (concentration buffer chamber / concentration plasma chamber) *100 […]
Samples were analyzed using an Agilent 1290 Infinity II HPLC system coupled to an AB Sciex QTrap 6500plus mass spectrometer. LC conditions were as follows: column: Agilent […]
Zorbax Eclipse Plus C18, 50x2.1 mm, 1.8 µm; temperature: 30 °C; injection volume: 5 µL per […]
sample; flow rate: 700 µL/min. Samples were run under acidic and buffered conditions.
Solvents for acidic conditions: A1: water + 0.1% formic acid; solvent B1: 95% acetonitrile/5% […]
H2O + 0.1% formic acid; solvents for buffered conditions: A2: 95% water + 5% acetonitrile + […]
5 mM ammonium acetate + 40 µL/L acetic acid; B2: 95% acetonitrile + 5% water + 5 mM […]
ammonium acetate + 40 µL/L acetic acid. The same gradient was applied for acidic and […]
buffered conditions: 99% A at 0 min, 99% A until 1 min, 99% - 0% A from 1 min to 4.0 min, […]
0% A until 5.0 min. Mass transitions for controls and compounds are depicted in the following […]

T1 sequence (Q05097 whole entry): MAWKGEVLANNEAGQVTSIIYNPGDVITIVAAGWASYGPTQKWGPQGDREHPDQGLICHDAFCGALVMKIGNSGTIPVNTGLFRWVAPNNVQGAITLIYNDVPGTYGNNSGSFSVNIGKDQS

## O=C(CCc1ccc(O[C@@H]2O[C@H](CO)[C@H](O)[C@H](O)[C@H]2O)cc1)Nc1ccc(CCc2ccc(NC(=O)CCc3ccc(O[C@@H]4O[C@H](CO)[C@H](O)[C@H](O)[C@H]4O)cc3)cc2S(=O)(=O)O)c(S(=O)(=O)O)c1 [Compound L2]
[1]; 250 nM inhibitor
  Decrease of LecA binding to H1299 cells: more than 30%
[1]; 1 μM inhibitor
  Decrease of LecA binding to H1299 cells: 50%
[1]
  Inhibition of lectin binding to the cells: complete inhibition
  IC50: 560 nM
[2]
  fraction unbound at 2 h, 1 µM: 0.86

## Cc1ccc(NC(=O)CCc2ccc(O[C@@H]3O[C@H](CO)[C@H](O)[C@H](O)[C@H]3O)cc2)cc1S(=O)(=O)O [Compound K2]
[1]
  IC50: 1900 nM and 1890 nM

## COc1ccc(NC(=O)CCc2ccc(O[C@@H]3O[C@H](CO)[C@H](O)[C@H](O)[C@H]3O)cc2)cn1 [Compound G2]
[1]
  IC50: 2800 nM and 2790 nM

## O=C(CCc1ccc(O[C@@H]2O[C@H](CO)[C@H](O)[C@H](O)[C@H]2O)cc1)Nc1ccc(OCCOc2ccc(NC(=O)CCc3ccc(O[C@@H]4O[C@H](CO)[C@H](O)[C@H](O)[C@H]4O)cc3)cn2)nc1 [Compound H2]
[1]; 250 nM inhibitor
  Decrease of LecA binding to H1299 cells: 16%
[1]; 1 μM inhibitor
  Decrease of LecA binding to H1299 cells: 50%
[1]
  Inhibition of lectin binding to the cells: complete inhibition
  IC50: 540 nM
[2]
  fraction unbound at 2 h, 1 µM: 0.03

## O=C(/C=C/c1ccc(O[C@@H]2O[C@H](CO)[C@H](O)[C@H](O)[C@H]2O)cc1)Nc1ccc(OCCOc2ccc(NC(=O)/C=C/c3ccc(O[C@@H]4O[C@H](CO)[C@H](O)[C@H](O)[C@H]4O)cc3)cc2)cc1 [Compound D1]
[2]
  fraction unbound at 2 h, 1 µM: 0.006
